Reference: patent publication US11459355B2, “Peptides having octopus octopressin activity and use thereof” (NATIONAL MARINE BIODIVERSITY INSTITUTE OF KOREA, priority 2018, dated 2022)

Tested on: Octopus minor
Assay: Analysis of bioactivity of octopressin peptide: behavior change of adult Octopus minor after injection
Assay type: in vivo
Procedure: Peptides satisfying the octopressin amino acid sequence and modification predicted in Example 4 were ordered and purchased from a peptide synthesizing company and used. A dried peptide powder was dissolved in tertiary distilled water to a concentration of 10 mg/ml, diluted 100 times of artificial seawater filtered through a 0.20 μm filter to prepare an injection solution. A disposable syringe and a 26 gauge needle were used to poke at a 1 cm deep, and the injection solution was administered in the center between the body of the head of the adult Octopus minor. The injection volume was 100 microgram/kg by weight of the Octopus minor. As a control group, Octopus minor without injection (before injection), Octopus minor injected with filtered artificial seawater only, and Octopus minor injected with octopus-derived octopressin were used. […] In addition, these behavior changes began to appear 1 to 5 minutes after injection and lasted for 10 to 20 minutes, and the effect peaked between 5 to 10 minutes after injection and lasted for 10 to 20 minutes. […] Here, the used Octopus minor were discarded without reuse.

“CFWTNCPVG (Octopressin_active peptide) [octopressin-activated peptide]” was tested, and the “brooding-like behavior after injection (FIG. 6B)” value (Octopus minor injected with octopressin) was “behaviors similar to the brooding behaviors” and the “behavior change after injection (repetitive bending and stretching of arms, social behaviors)” value (adult Octopus minor, injection between body and head, 100 microgram/kg, total of 12 Octopus minors, regardless of sex) was “had bioactivity”.
